For 22 compounds, IC50 results are on record in US11878975B2, “Substituted indole compounds useful as TLR inhibitors” (BRISTOL-MYERS SQUIBB COMPANY, priority 2017, dated 2024).

Holding throughout (format): cell-based
One experiment deals with T1, human TLR7 (Homo sapiens, UniProt Q9NYK1).
T1 construct: host or cells: HEK-Blue cells
T1 sequence (Q9NYK1 27-1049): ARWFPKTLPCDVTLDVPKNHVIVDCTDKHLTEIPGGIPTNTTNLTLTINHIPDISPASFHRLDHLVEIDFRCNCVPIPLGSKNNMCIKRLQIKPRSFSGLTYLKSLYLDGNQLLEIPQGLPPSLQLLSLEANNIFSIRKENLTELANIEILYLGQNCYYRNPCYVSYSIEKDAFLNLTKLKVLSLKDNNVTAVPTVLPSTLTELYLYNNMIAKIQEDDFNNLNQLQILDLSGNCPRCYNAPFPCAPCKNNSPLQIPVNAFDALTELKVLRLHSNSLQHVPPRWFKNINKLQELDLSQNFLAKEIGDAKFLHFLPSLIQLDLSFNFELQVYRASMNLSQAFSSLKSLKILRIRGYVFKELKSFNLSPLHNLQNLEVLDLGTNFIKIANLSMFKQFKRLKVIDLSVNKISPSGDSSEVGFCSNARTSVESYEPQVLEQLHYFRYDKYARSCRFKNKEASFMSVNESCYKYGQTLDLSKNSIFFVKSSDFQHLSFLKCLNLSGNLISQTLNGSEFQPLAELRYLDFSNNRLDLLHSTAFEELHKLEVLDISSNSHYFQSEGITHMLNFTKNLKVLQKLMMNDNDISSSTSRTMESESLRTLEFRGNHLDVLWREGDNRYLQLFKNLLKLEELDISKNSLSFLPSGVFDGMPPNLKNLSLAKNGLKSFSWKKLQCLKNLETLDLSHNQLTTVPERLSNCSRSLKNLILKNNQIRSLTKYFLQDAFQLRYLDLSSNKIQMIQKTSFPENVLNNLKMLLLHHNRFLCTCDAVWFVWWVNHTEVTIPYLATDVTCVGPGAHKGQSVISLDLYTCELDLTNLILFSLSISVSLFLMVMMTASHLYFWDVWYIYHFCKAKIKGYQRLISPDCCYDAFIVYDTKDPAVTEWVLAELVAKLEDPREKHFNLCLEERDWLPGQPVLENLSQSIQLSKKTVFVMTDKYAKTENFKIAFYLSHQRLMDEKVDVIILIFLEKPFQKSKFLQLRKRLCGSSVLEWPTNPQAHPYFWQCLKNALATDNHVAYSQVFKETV
In words: TLR7 inhibition reporter assay (HEK-Blue cells, SEAP reporter, gardiquimod stimulation). Particulars: HEK-Blue cells overexpressing human TLR7, SEAP reporter, gardiquimod 7.5 μM. The procedure, abridged: (§1)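 Dose range 0.05 nM–50 μM; 30 min preincubation, RT. Agonists: TLR7 gardiquimod 7.5 μM, TLR8 R848 15.9 μM, TLR9 ODN2006 5 nM. 22 h, 37 °C, 5% CO2. SEAP (IFN-β minimal promoter with NF-κB/AP-1 sites) via colorimetric detection medium; % inhibition vs agonist+DMSO and reference-inhibitor wells.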
Background: Reporter assays use an easily measured gene product as a stand-in for the process of interest.

A further experiment concerns the target T2, human TLR8 (Homo sapiens, UniProt Q9NR97).
T2 construct: host or cells: HEK-Blue cells
T2 sequence (Q9NR97 27-1041): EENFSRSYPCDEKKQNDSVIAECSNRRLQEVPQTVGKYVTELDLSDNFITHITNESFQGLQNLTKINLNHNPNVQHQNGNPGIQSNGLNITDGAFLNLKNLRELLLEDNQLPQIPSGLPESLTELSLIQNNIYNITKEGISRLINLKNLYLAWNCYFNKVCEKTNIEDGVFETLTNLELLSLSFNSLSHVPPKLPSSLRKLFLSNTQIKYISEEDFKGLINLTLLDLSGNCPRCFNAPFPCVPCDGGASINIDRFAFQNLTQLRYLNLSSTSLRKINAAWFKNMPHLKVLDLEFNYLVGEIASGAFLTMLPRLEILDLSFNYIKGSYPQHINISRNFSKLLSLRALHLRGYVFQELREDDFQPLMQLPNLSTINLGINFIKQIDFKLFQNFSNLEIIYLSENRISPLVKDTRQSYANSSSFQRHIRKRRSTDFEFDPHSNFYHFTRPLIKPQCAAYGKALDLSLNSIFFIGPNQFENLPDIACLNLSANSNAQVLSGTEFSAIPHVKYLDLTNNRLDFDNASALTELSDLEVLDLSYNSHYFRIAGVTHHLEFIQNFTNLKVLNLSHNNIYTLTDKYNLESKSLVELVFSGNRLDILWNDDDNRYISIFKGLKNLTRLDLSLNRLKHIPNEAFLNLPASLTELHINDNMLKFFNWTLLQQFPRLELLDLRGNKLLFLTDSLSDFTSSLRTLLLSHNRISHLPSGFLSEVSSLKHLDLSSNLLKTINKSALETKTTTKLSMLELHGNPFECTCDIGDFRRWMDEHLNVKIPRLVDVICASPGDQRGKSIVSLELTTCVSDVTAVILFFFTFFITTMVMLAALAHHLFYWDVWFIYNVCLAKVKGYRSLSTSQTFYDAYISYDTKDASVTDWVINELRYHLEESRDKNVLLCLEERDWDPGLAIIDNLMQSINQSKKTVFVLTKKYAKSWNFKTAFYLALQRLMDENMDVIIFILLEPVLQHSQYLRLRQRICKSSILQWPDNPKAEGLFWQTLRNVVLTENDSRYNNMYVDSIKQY
In words: TLR8 inhibition reporter assay (HEK-Blue cells, SEAP reporter, R848 stimulation). Particulars: HEK-Blue cells overexpressing human TLR8, SEAP reporter, R848 15.9 μM. A digest of the protocol: as §1

The target of the next experiment is T3, human TLR9 (Homo sapiens, UniProt Q9NR96).
T3 construct: host or cells: HEK-Blue cells
T3 sequence (Q9NR96 26-1032): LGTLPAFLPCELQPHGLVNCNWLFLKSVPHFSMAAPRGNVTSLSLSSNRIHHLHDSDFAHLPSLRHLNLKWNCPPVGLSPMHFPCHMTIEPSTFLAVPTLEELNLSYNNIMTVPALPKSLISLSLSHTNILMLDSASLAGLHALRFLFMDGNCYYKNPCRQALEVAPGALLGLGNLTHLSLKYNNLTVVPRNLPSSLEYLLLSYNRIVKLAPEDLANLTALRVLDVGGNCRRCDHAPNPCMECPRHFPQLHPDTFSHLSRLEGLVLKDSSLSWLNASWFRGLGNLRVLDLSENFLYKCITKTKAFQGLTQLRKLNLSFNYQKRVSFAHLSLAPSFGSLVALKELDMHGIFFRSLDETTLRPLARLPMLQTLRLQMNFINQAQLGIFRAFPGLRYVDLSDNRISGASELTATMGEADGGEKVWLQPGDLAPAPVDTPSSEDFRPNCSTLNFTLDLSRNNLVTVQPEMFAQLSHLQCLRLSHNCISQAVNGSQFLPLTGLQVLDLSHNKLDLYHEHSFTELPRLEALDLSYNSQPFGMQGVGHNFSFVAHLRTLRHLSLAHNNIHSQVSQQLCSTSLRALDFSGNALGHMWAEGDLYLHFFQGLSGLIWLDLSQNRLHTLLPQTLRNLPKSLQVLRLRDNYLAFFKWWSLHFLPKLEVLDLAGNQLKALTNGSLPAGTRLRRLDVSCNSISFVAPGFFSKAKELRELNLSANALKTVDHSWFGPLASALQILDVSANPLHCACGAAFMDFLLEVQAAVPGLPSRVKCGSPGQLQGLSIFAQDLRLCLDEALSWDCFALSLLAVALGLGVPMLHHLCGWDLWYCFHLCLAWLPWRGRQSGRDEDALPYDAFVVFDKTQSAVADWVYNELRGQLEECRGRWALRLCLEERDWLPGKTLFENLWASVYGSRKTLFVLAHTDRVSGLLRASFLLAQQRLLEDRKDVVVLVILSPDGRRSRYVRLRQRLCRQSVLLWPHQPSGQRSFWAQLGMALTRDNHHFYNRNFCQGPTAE
In words: TLR9 inhibition reporter assay (HEK-Blue cells, SEAP reporter, ODN2006 stimulation). Particulars: HEK-Blue cells overexpressing human TLR9, SEAP reporter, ODN2006 5 nM. A digest of the protocol: as §1

As usually defined, the IC50 is the concentration at which inhibition is half-maximal. Take `Cc1c(-c2[nH]c3ccc(C4CCC(NC5COC5)CC4)cc3c2C(C)C)cn(C)c(=O)c1C` (stereo not drawn) [Example 477]: the values for the IC50 against human TLR7, against human TLR8 and at human TLR9 were 0.002 µM, 0.0018 µM and 8.21 µM, respectively.
Take `Cc1c(-c2[nH]c3ccc(C4CCC(NC5COC5)CC4)cc3c2C(C)C)cn(C)c(=O)c1C` (stereo not drawn) [Example 478]: the IC50 against human TLR7 worked out at 0.02 µM; at human TLR8, 0.0076 µM; at human TLR9 it was 10.2 µM.
The like results for `Cc1c(-c2[nH]c3ccc(C4CCC(NCC(=O)N(C)C)CC4)cc3c2C(C)C)cn(C)c(=O)c1C` (stereo not drawn) [Example 479] were, in that order, 0.005 µM, 0.0041 µM and 8.61 µM.
Turning to `Cc1c(-c2[nH]c3ccc(C4CCC(NCC(=O)N(C)C)CC4)cc3c2C(C)C)cn(C)c(=O)c1C` (stereo not drawn) [Example 480], the concentration for half-maximal inhibition (IC50) against human TLR7 came out at 0.02 µM; against human TLR8, 0.0063 µM; against human TLR9 it was 6.2 µM.
With `Cc1c(-c2[nH]c3ccc(C4CN(C5CCOCC5)C4)cc3c2C(C)C)cn(C)c(=O)c1C` [Example 481], the half-maximal inhibitory concentration (IC50) on human TLR7 was determined as 0.109 µM; at human TLR8, 0.027 µM; on human TLR9, 32.8 µM.
For `Cc1c(-c2[nH]c3ccc(C4CN(C(C)C)C4)cc3c2C(C)C)cn(C)c(=O)c1C` [Example 482] the same measures were 0.034 µM, 0.0092 µM and 10.3 µM.
Turning to `Cc1c(-c2[nH]c3ccc(C4CN(CCS(C)(=O)=O)C4)cc3c2C(C)C)cn(C)c(=O)c1C` [Example 483], the IC50 turned out to be 0.061 µM on human TLR7, 0.0088 µM against human TLR8 and 22.7 µM against human TLR9.
The like results for `Cc1c(-c2[nH]c3ccc(C4CN(C(=O)CN(C)C)C4)cc3c2C(C)C)cn(C)c(=O)c1C` [Example 484] were, in that order, 0.041 µM, 0.0095 µM and 16.5 µM.
For `Cc1c(-c2[nH]c3ccc(C4CN(C5COC5)C4)cc3c2C(C)C)cn(C)c(=O)c1C` [Example 485], the IC50 came out at 0.046 µM against human TLR7, 0.027 µM against human TLR8 and 48 µM on human TLR9.
The like results for `COCCN1CC(c2ccc3[nH]c(-c4cn(C)c(=O)c(C)c4C)c(C(C)C)c3c2)C1` [Example 487] were, in that order, 0.045 µM, 0.0058 µM and 10.5 µM.
The like results for `CCCN1CC(c2ccc3[nH]c(-c4cn(C)c(=O)c(C)c4C)c(C(C)C)c3c2)C1` [Example 488] were, in that order, 0.022 µM, 0.006 µM and 4.24 µM.
For `Cc1c(-c2[nH]c3ccc(C4CN(CC(=O)N(C)C)C4)cc3c2C(C)C)cn(C)c(=O)c1C` [Example 489] the same measures were 0.128 µM, 0.02 µM and 14.9 µM.
Consider `Cc1c(-c2[nH]c3ccc(C4CC(NC(=O)CN(C)C)C4)cc3c2C(C)C)cn(C)c(=O)c1C` (stereo not drawn) [Example 490], for which the IC50 on human TLR7 was 0.002 µM; at human TLR8, 0.001 µM; against human TLR9, 13.5 µM.
In the case of `Cc1c(-c2[nH]c3ccc(C4CC(N)C4)cc3c2C(C)C)cn(C)c(=O)c1C` (stereo not drawn) [Example 492], the IC50 is 0.004 µM against human TLR7, 0.0016 µM on human TLR8 and 6.07 µM against human TLR9.
With `Cc1c(-c2[nH]c3ccc(C4CC(N)C4)cc3c2C(C)C)cn(C)c(=O)c1C` (stereo not drawn) [Example 493], the IC50 at human TLR7 stood at 0.016 µM; against human TLR8, 0.0046 µM; at human TLR9, 4.2 µM.
The like results for `Cc1c(-c2[nH]c3ccc(C4CC(NCCS(C)(=O)=O)C4)cc3c2C(C)C)cn(C)c(=O)c1C` (stereo not drawn) [Example 494] were, in that order, 0.005 µM, 0.00048 µM and 12 µM.
The like results for `Cc1c(-c2[nH]c3ccc(C4CC(NCCS(C)(=O)=O)C4)cc3c2C(C)C)cn(C)c(=O)c1C` (stereo not drawn) [Example 495] were, in that order, 0.038 µM, 0.0013 µM and 20.7 µM.
For the compound `Cc1c(-c2[nH]c3ccc(C4CC(NC5COC5)C4)cc3c2C(C)C)cn(C)c(=O)c1C` (stereo not drawn) [Example 496], the IC50 was 0.057 µM against human TLR7, 0.0043 µM against human TLR8 and more than 50 µM on human TLR9.
As to `Cc1cc(-c2[nH]c3ccc(C4CCC(N5CCOCC5)CC4)cc3c2C(C)C)cc(C)n1` (stereo not drawn) [Example 497], the values for the 50% inhibitory concentration (IC50) against human TLR7, against human TLR8 and against human TLR9 were 0.001 µM, 0.0023 µM and 0.649 µM, respectively.
As for `Cc1cc(-c2[nH]c3ccc(C4CCC(N5CCOCC5)CC4)cc3c2C(C)C)cc(C)n1` (stereo not drawn) [Example 498], the figures for the half-maximal inhibitory concentration (IC50) on human TLR7, on human TLR8 and against human TLR9 were 0.005 µM, 0.018 µM and 0.531 µM, respectively.
On to `Cc1c(-c2[nH]c3ccc(C4CN(CC5CCOC5)C4)cc3c2C(C)C)cn(C)c(=O)c1Cl` (stereo not drawn) [Example 499], for which the IC50 against human TLR7 came to 0.043 µM; on human TLR8, 0.025 µM; against human TLR9 it was 9.97 µM.
As for `CCCN1CC(c2ccc3[nH]c(-c4cn(C)c(=O)c(Cl)c4C)c(C(C)C)c3c2)C1` [Example 500], the figures for the concentration for half-maximal inhibition (IC50) at human TLR7, against human TLR8 and against human TLR9 were 0.016 µM, 0.013 µM and 5.37 µM, respectively.
